Reference: US5585352A, “Method of treating septic shock using thymosin-α 1” (The George Washington University Medical Center, priority 1994, dated 1996)
No end group written: not given here.

Columns and labels:
endotoxic mice = experiment: Survival of Swiss Webster mice following lethal endotoxin dose and Tα1; type: in vivo
Procedure: (§1) Swiss-Webster mice 4-6 weeks of age (20-25 g) were divided into 2 groups: endotoxic mice (endotoxin 60 mg/kg i.p. in acute treatment) and endotoxic mice treated with 3 injections of 100 μg Tα1 (5 minutes, 2 and 4 hours post administration of the endotoxin).
Using the same materials and methods as in example 1, the time and dose-dependency of the protective effect of Tα1 on endotoxin lethality were studied.

malonyldialdehyde [1] = experiment: Blood hydroperoxide (malonyldialdehyde) levels in mice treated with lethal doses of endotoxin; type: in vivo, Swiss-Webster mice
Procedure: as §1
*Whole blood samples (0.5 ml) were obtained by tail bleds 1 hour after
endotoxin administration

glutathione (RBC GSH) [2] = experiment: Erythrocyte glutathione levels in mice treated with lethal doses of endotoxin; type: in vivo, Swiss-Webster mice
Procedure: as §1
*Total erythrocyte glutathione, 98% of which is in the reduced form (GSH)
was determined by the enzymatic "cyclic method."-

[3] = tested on: Cerebellar cortex cyclic GMP; experiment: cGMP cerebellar levels in mice treated with lethal doses of endotoxin; type: in vivo, Swiss-Webster mice
Procedure: as §1

TNF-α = experiment: Serum TNF-α levels in mice treated with lethal doses of endotoxin; type: in vivo, Swiss-Webster mice
Procedure: as §1
(§2) *Mice were pretreated with SOD (super oxide dismatase), 30 minutes before
(§3) endotoxin administration XX blood for determined of TNFα and
(§4) IL1α levels was collected 1 hr after endotoxin administration.
(§5) Using the same methods and materials as in examples 1 and 2, the effect which Tα1 has on blood levels of IL-1α, TNF-α, PAG, Txβ2 and 6-keto-PGF1 α, which are pathological mediators of endotoxin induced lethality, was studied.

IL-1α = experiment: Serum IL-1α levels in mice treated with lethal doses of endotoxin; type: in vivo, Swiss-Webster mice
Procedure: as §1, §2, §3, §4, §5

PAF = PAF blood levels in mice after lethal dose of endotoxin; type: in vivo, Swiss-Webster mice
Procedure: as §1, §5

Txβ2 = Txβ2 plasma levels in mice after lethal dose of endotoxin; type: in vivo, Swiss-Webster mice
Procedure: as §1, §5

6-keto-PGF1α = 6-keto-PGF1α plasma levels in mice after lethal dose of endotoxin; type: in vivo, Swiss-Webster mice
Procedure: as §1, §5

Rats with Septic Shock = experiment: Survival in septic shock model in rats (peritonitis by cecal ligation and puncture); type: in vivo, Sprague-Dawley rats; conditions: for Survival of Sprague-Dawley rats, 48 hr / Survival of Sprague-Dawley rats, 72 hr / Survival of Sprague-Dawley rats, 24 hr: rats with peritonitis, both groups got antibiotic (gentamicin sulfate, 1 mg/rat), 10 at 0 hr; for Survival of Sprague-Dawley rats, 48 hr / Survival of Sprague-Dawley rats, 72 hr: thymosin α1 1 mg/rat × 3; for Survival of Sprague-Dawley rats, 24 hr: thymosin α1 1 mg/rat × 3 at 0, 2 and 4 hr post induction; for Number of Rats Alive, 24 h / Number of Rats Alive, 48 h / Number of Rats Alive, 72 h: Rats with Septic Shock + Tα1 1 mg/rat × 3, 10 alive at 0 h
Excerpt: (§6) Using a septic shock model in rats (Sprague-Dawley, male, 200-225 g each), the effect of thymosin α1 alone and together with antibiotics was studied. Peritonitis was induced in rats in the following way. A 1-cm incision was made into the peritoneal which exposed the cecum. A tight ligature was placed around the cecum with 4-0 suture distal to the insertion of the small bowel, forming an area of devitalized tissue while maintaining bowel continuity. A puncture wound was made with 16-gauge needle into the anti-mesenteric surface of the cecum and a small amount of fecal contents was expressed through the wound. The cecum was replaced into the peritoneal cavity, and the anterior peritoneal wall and skin were closed with surgical staples. Each animal was given a bolus of normal saline (15 ml/kg) for hydration and allowed to recover overnight.
*gentamicin sulfate, 1 mg/rat
(§7) **At 0 hr, 2 hr, and 4 hr post induction of peritonitis

TNFα = TNFα levels in a septic shock model in rat; type: in vivo, Sprague-Dawley rats; conditions: Rats with Septic Shock + Tα1 1 mg/rat × 3
Excerpt: as §6, §7

IL1 α = experiment: IL1α levels in a septic shock model in rat; type: in vivo, Sprague-Dawley rats; conditions: Rats with Septic Shock + Tα1 1 mg/rat × 3
Excerpt: as §6, §7

malonyldialdehyde [4] = experiment: Lipid peroxidation (blood malonyldialdehyde) in a septic shock model in rat; type: in vivo, Sprague-Dawley rats; conditions: Rats with Septic + Tα1 1 mg/rat × 3
Excerpt: as §6, §7

glutathione (RBC GSH) [5] = experiment: Glutathione levels in a rat septic shock model; type: in vivo, Sprague-Dawley rats; conditions: Rats with Septic Shock + Tα1 mg/rat × 3
Excerpt: as §6, §7

6-keto-PGF1 = 6-keto-PGF1 levels in a septic shock model in rat; type: in vivo, Sprague-Dawley rats; conditions: Rats with Septic Shock + Tα1 1 mg/rat × 3
Excerpt: as §6, §7

T × β2 = experiment: Txβ2 levels in a septic shock model in rat; type: in vivo, Sprague-Dawley rats; conditions: Rats with Septic Shock + Tα1 1 mg/rat × 3
Excerpt: as §6, §7

[6] = tested on: blood free radical levels; experiment: Blood free radical levels; type: in vivo; conditions: compared with SOD
[7] = Table I, Endotoxin 60 mg/kg + Tα1 100 μg 3×, 7 alive at 0 hrs
[8] = Table II, Endotoxin 60 mg/kg + Tα1 100 μg 3×, 8 alive at 0 hr.
[9] = Table VIII, Tα1 10 μg, 3×, immediately following, 2 and 4 hrs. after endotoxin, 8 alive at 0 hrs
[10] = Table VIII, Tα1 100 μg, 3×, 2, 4 and 6 hrs. after endotoxin, 8 alive at 0 hrs
[11] = Table VIII, Tα1 100 μg, 3×, immediately following, 2 and 4 hrs. after endotoxin, 8 alive at 0 hrs
[12] = during sepsis, species not given
[13] = Table VI, serum, Endotoxin 60 mg/kg + Tα1
[14] = Table VII, serum, pretreatment with SOD 3.3 × 10^4 μ/kg (30 minutes before endotoxin) or Tα1 100 μg/mice, blood 1 hr after endotoxin
[15] = Table XIV, Endotoxin 60 mg/kg + Tα1 100 μg administered immediately following
[16] = after administration of a lethal dose of endotoxin
[17] = Table IX, Endotoxin 60 mg/kg + Tα1 100 μg administered immediately following
[18] = Table X, Endotoxin 60 mg/kg + Tα1 100 μg administered immediately following
[19] = Table XIII, Endotoxin 60 mg/kg + Tα1 100 μg administered immediately following
[20] = Table XI, Endotoxin 60 mg/kg + Tα1 100 μg administered immediately following
[21] = Table XII, Endotoxin 60 mg/kg + Tα1 100 μg administered immediately following
[22] = first of two unlabelled columns
[23] = second of two unlabelled columns

Substance: Thymosin α1 (SDAAVDTSSEITTKDLKEKKEVVEEAEN; ends and bridges not checked; UniProt P06454 2-29, looked up) [Tα1, peptide originally derived from the Thymus gland, 28 amino acids; synthetic Tα1 prepared by solid phase peptide synthesis]
- Number of Mice Alive, 24 hrs (endotoxic mice; Table I, Endotoxin 60 mg/kg + Tα1 100 μg 3× (5 minutes, 2 and 4 hours post endotoxin), 7 alive at 0 hrs): 7
- Number of Mice Alive, 48 hrs (endotoxic mice; [7]): 7
- Number of Mice Alive, 72 hrs (endotoxic mice; [7]): 7
- Number of Mice Alive, 24 hr. (endotoxic mice; [8]): 8
- Number of Mice Alive, 48 hr. (endotoxic mice; [8]): 8
- Number of Mice Alive, 72 hr. (endotoxic mice; [8]): 8
- Number of Mice Alive, 7 day (endotoxic mice; [8]): 8
- Number of Mice Alive, 14 day (endotoxic mice; [8]): 8
- Number of Mice Alive, 24 hrs (endotoxic mice; Table VIII, Endotoxin 60 mg/kg + Tα1 10 μg, 3×, immediately following, 2 and 4 hrs. after endotoxin, 8 alive at 0 hrs): 8
- Number of Mice Alive, 24 hrs (endotoxic mice; Table VIII, Endotoxin 60 mg/kg + Tα1 100 μg, 3×, 2, 4 and 6 hrs. after endotoxin, 8 alive at 0 hrs): 8
- Number of Mice Alive, 24 hrs (endotoxic mice; Table VIII, Endotoxin 60 mg/kg + Tα1 100 μg, 3×, immediately following, 2 and 4 hrs. after endotoxin, 8 alive at 0 hrs): 8
- Number of Mice Alive, 48 hrs (endotoxic mice; [9]): 5
- Number of Mice Alive, 72 hrs (endotoxic mice; [9]): 5
- Number of Mice Alive, 96 hrs (endotoxic mice; [9]): 5
- Number of Mice Alive, 120 hrs (endotoxic mice; [9]): 5
- Number of Mice Alive, 48 hrs (endotoxic mice; [10]): 8
- Number of Mice Alive, 72 hrs (endotoxic mice; [10]): 8
- Number of Mice Alive, 96 hrs (endotoxic mice; [10]): 8
- Number of Mice Alive, 120 hrs (endotoxic mice; [10]): 8
- Number of Mice Alive, 48 hrs (endotoxic mice; [11]): 8
- Number of Mice Alive, 72 hrs (endotoxic mice; [11]): 8
- Number of Mice Alive, 96 hrs (endotoxic mice; [11]): 8
- Number of Mice Alive, 120 hrs (endotoxic mice; [11]): 8
- survival rate of mice treated with endotoxin (endotoxic mice; Tα1 administered 3 times post administration of endotoxin, Tables I and II): 100%
- effective protective dose (endotoxic mice; administered three times, endotoxin lethality in mice): 100 µg
- protective effect on endotoxin toxicity (endotoxic mice; given immediately following, 2 and 4 hours after, or 2, 4 and 6 hours after endotoxin treatment): had protective effect on endotoxin toxicity
- Blood Levels of malonyldialdehyde (malonyldialdehyde [1]; Endotoxin 60 mg/kg + Tα1 100, whole blood 1 hour after endotoxin administration): 16.9 ± 1.36 nMol MDA
- peroxidation of lipids in blood (malonyldialdehyde [1]; [12]): returned to normal or about normal
- RBC GSH (glutathione (RBC GSH) [2]; Endotoxin 60 mg/kg + Tα1 100 μg/mouse, total erythrocyte glutathione): 1.12 ± 0.12 μmoles/ml cells
- circulating blood levels of glutathione (glutathione (RBC GSH) [2]; [12]): returns circulatory gluthathine leves to normal or about normal
- Cerebellar cortex cyclic GMP ([3]; Endotoxin 60 mg/kg i.p. + Tα1 100 μg): 14.6 ± 1.2 pmol per mg/protein
- cerebellar cGMP levels ([3]; administration during sepsis): decreases cerebellar cGMP levels
- TNF-α, 1 hr (TNF-α; [13]): 638 ± 57 pg/mL
- TNF-α, 3 hr (TNF-α; [13]): 426 ± 37 pg/mL
- TNF-α, 5 hr (TNF-α; [13]): 297 ± 27 pg/mL
- TNF-α (TNF-α; [14]): 285 ± 23.6 pg/mL
- TNF-α (serum levels), 1 hr (TNF-α; [15]): 783 pg/mL
- TNF-α (serum levels), 3 hr (TNF-α; [15]): 508 pg/mL
- TNF-α (serum levels), 5 hr (TNF-α; [15]): 429 pg/mL
- TNF-α serum levels (TNF-α; [16]): decreased
- IL-1α (serum levels), 1 hr (IL-1α; [17]): 83 ± 7.1 pg/mL
- IL-1α (serum levels), 3 hr (IL-1α; [17]): 165 ± 13.7 pg/mL
- IL-1 α (IL-1α; [14]): 109 ± 71 pg/mL
- IL-1α serum levels (IL-1α; [16]): decreased
- PAF (plasma levels), 0.5 hr (PAF; [18]): 48 ± 3 pg/mL
- PAF (plasma levels), 1 hr (PAF; [18]): 136 ± 9 pg/mL
- PAF (plasma levels), 2 hr (PAF; [18]): 68 ± 4 pg/mL
- PAF (plasma levels), 3 hr (PAF; [18]): 32 ± 2 pg/mL
- PAF (serum levels), 1 hr (PAF; [19]): 783 pg/mL
- PAF (serum levels), 3 hr (PAF; [19]): 508 pg/mL
- PAF (serum levels), 5 hr (PAF; [19]): 429 pg/mL
- PAF plasma levels (PAF; [16]): decreased
- T × β2 (plasma levels), 0.5 hr. (Txβ2; [20]): 910 ± 85 pg/mL
- T × β2 (plasma levels), 2 hr (Txβ2; [20]): 530 ± 47 pg/mL
- T × β2 (plasma levels), 1 hr (Txβ2; Table XI, Endotoxin 60 mg/kg + Tα1 100 μg administered immediately following, spread 185 printed): 1921 pg/mL
- T × β2 (plasma levels), 3 hr (Txβ2; Table XI, Endotoxin 60 mg/kg + Tα1 100 μg administered immediately following, spread 260 printed): 391 pg/mL
- Txβ2 plasma levels (Txβ2; [16]): decreased
- 6-keto-PGF1α (plasma levels), 0.5 hr. (6-keto-PGF1α; [21]): 224 ± 19 pg/mL
- 6-keto-PGF1α (plasma levels), 1 hr (6-keto-PGF1α; [21]): 745 ± 62 pg/mL
- 6-keto-PGF1α (plasma levels), 2 hr (6-keto-PGF1α; [21]): 341 ± 33 pg/mL
- 6-keto-PGF1α (plasma levels), 3 hr (6-keto-PGF1α; [21]): 205 ± 19 pg/mL
- 6-keto-PGF1 α plasma levels (6-keto-PGF1α; [16]): decreased
- Survival of Sprague-Dawley rats, 48 hr (Rats with Septic Shock; Table XV): 6
- Survival of Sprague-Dawley rats, 72 hr (Rats with Septic Shock; Table XV): 6
- Survival of Sprague-Dawley rats, 24 hr (Rats with Septic Shock; Table XV): 8
- survival of rats (Rats with Septic Shock; Table XV, with antibiotic): increased the survival of rats
- Number of Rats Alive, 24 h (Rats with Septic Shock; Table XX): 9
- Number of Rats Alive, 48 h (Rats with Septic Shock; Table XX): 9
- Number of Rats Alive, 72 h (Rats with Septic Shock; Table XX): 5
- Number of Rats Alive, 24 h (Rats with Septic Shock; Table XXI): 8
- Number of Rats Alive, 48 h (Rats with Septic Shock; Table XXI): 7
- Number of Rats Alive, 72 h (Rats with Septic Shock; Table XXI): 3
- survival rate of rats with septic shock (Rats with Septic Shock; Tables XX and XXI): increases the survival rate of rats with septic shock
- TNFα (TNFα): 1231 ± 129 pg/mL
- IL1 α (IL1 α): 689 ± 53 pg/mL
- Blood Levels of malonyldialdehyde (malonyldialdehyde [4]; [22]): 17.1 ± 1.6 nNol MDA
- Blood Levels of malonyldialdehyde (malonyldialdehyde [4]; [23]): 21.9 ± 2.3 nNol MDA
- RBC GSH (glutathione (RBC GSH) [5]; [22]): 1.29 ± 0.07 μmoles/ml cells
- RBC GSH (glutathione (RBC GSH) [5]; [23]): 1.20 ± 0.085 μmoles/ml cells
- 6-keto-PGF1 (6-keto-PGF1): 1132 ± 96 pg/mL
- T × β2 (T × β2): 2353 ± 197 pg/mL
- blood free radical levels [6]: reduce blood free radical levels almost as much as SOD

Substance: gentamicin sulfate [antibiotic, reference compound]
- Survival of Sprague-Dawley rats, 48 hr (Rats with Septic Shock; Table XV): 1
- Survival of Sprague-Dawley rats, 72 hr (Rats with Septic Shock; Table XV): 0
- Survival of Sprague-Dawley rats, 24 hr (Rats with Septic Shock; Table XV): 1
